Data from patent US20240091294A1, “Extract of Top Growth of Holy Basil, and Cosmetic or Dermatological Compositions Containing Same” (Laboratoires Expanscience, priority 2021, published 2024).

Key:
normal human fibroblasts [1] = assay: Menadione-induced ROS production in fibroblasts; type: cell-based; conditions: 10 mM, 24 h, Menadione 200 μM
Method: (§1) Normal human keratinocytes, on the one hand, and normal human fibroblasts, on the other, were treated for 24 hours with the 0.001% and 0.005% dry matter (dm) holy basil extract obtained according to Example 1 or with 10 mM N-Acetyl Cysteine (NAC), a ROS scavenger molecule used as an antioxidant reference. […] ROS were labeled with the CellRox® probe; intracellular fluorescence, proportional to the amount of ROS, was measured. Results were statistically analyzed using a one-factor ANOVA, followed by a Dunnett's test.

[2] = tested on: normal human keratinocytes; assay: Menadione-induced ROS production in keratinocytes; type: cell-based; conditions: 10 mM, 24 h, Menadione 50 μM
Method: as §1

normal human fibroblasts [3] = assay: Glutathione (GSH) content in fibroblasts under menadione stress; type: cell-based; conditions: 10 mM, 24 h; Menadione 25 μM 4 h
Method: Normal human fibroblasts were treated for 24 hours with 0.001% and 0.005% dm holy basil extract obtained according to Example 1 or with the antioxidant reference, 10 mM NAC. Oxidative stress was then induced by 4-hour incubation in the presence of 25 μM menadione. GSH stock was monitored using the fluorescent probe Monochlorobimane (Mbi); intracellular fluorescence, proportional to the amount of GSH, was measured.

[4] = tested on: normal human epidermal keratinocytes; assay: γH2AX expression (DNA double-strand breaks) in keratinocytes under camptothecin stress; type: cell-based; conditions: reference, 24 h pre-incubation; camptothecin 1 h
Method: Normal human epidermal keratinocytes were pre-incubated for 24 hours in the presence of the holy basil extract obtained in Example 1 at 0.001% and 0.005% dm or the reference nicotinamide, prior to 1-hour exposure to camptothecin. Camptothecin is a genotoxic compound, a toposiomerase I inhibitor, used for the induction of DNA double-strand breaks. Double-strand breaks were detected by immunostaining of γH2AX (phosphorylation of histone H2AX which intervenes early in response to double-strand breaks) and quantified by image analysis. Results were statistically analyzed using an ANOVA followed by a Tukey test.

[5] = tested on: normal human keratinocytes; assay: H2O2-induced ROS production in normal human keratinocytes; type: cell-based; conditions: 24 h, H2O2 100 μM 20 min
Method: Quercetin at 10 μM or Vitamin C at 500 μM, before incorporation of the H2DCF-DA probe. Keratinocytes were then stimulated with 100 μM hydrogen peroxide (H2O2) for 20 minutes. ROS production was assessed by measuring the fluorescence emitted by the probe on contact with ROS. Results were statistically analyzed using a one-way ANOVA followed by a Tukey test.

[6] = tested on: normal human epidermal keratinocytes; assay: Aquaporin-3 production in keratinocytes (immunostaining); type: cell-based; conditions: reference, 24 h
Method: Normal human epidermal keratinocytes were incubated for 24 hours in the presence of the holy basil extract obtained in Example 1 at 0.001% and 0.005% dm or retinoic acid, positive reference. Aquaporin-3 expression was assessed by immunostaining and quantified by image analysis.

[7] = tested on: normal human keratinocytes; assay: IL8 produced by keratinocytes under PMA-induced inflammatory stress (ELISA); type: cell-based; conditions: 24 h pre-incubation, PMA 10 μg/ml 24 h
Method: Normal human keratinocytes were pre-incubated for 24 hours in the presence of holy basil extract obtained according to Example 1 at 0.001%, 0.005% or 0.01% dm or dexamethasone at 0.1 μM, an anti-inflammatory reference. The cells were then stimulated by 24-hour treatment in the presence of 10 μg/mL PMA (Phorbol-Myristate-Acetate).
At the end of treatment, the IL8 produced was quantified by ELISA assay in the culture supernatants.
Results were analyzed statistically using the Student t-test.

reconstructed epidermis = assay: IL1α produced by PMA-stimulated reconstructed epidermis; type: cell-based, human; conditions: systemic, 24 h pre-incubation, PMA 0.5 μg/ml 24 h
Method: […] After 24 hours pre-incubation, the epidermis was stimulated with 0.5 μg/mL PMA and incubated again for 24 hours.
Culture supernatants were collected, an IL1α assay was performed on the one hand and, on the other, these supernatants (conditioned media) were plated onto cultures of normal human dermal fibroblasts.
Results were statistically analyzed using an ANOVA followed by a Tukey test.

[8] = tested on: normal human dermal fibroblasts; assay: Gene expression of dermal matrix markers in fibroblasts (qPCR); type: cell-based; conditions: 5 ng/ml, 48 h
Method: Normal human dermal fibroblasts were incubated for 48 hours in the presence of holy basil extract obtained according to Example 1 at 0.001% and 0.005% dm or TGFβ1 at 5 ng/ml, the positive assay reference.
Gene expression of Collagen I, Elastin, Dermatopontin and MMP1 (Matrix-Metalloproteinase-1) was assessed by real-time quantitative PCR.
Results were statistically analyzed using a one-factor analysis of variance (ANOVA), followed by a Dunnett's post-test.

[9] = tested on: normal human keratinocytes; assay: Lipid peroxidation in keratinocytes under cumene hydroperoxide stress; type: cell-based; conditions: 200 μM, 24 h, Cumene 200 μM
Method: (§2) Normal human keratinocytes, on the one hand, and normal human fibroblasts, on the other, were treated for 24 hours with the 0.001% and 0.005% dm holy basil extract obtained according to example 1 or with the antioxidant reference, vitamin E at 200 μM. Oxidative stress was then induced by incubation for 1 hour in the presence of cumene hydroperoxide at 200 or 50 μM.
(§3) Results were statistically analyzed using a one-way ANOVA followed by a Tukey test.

normal human fibroblasts [10] = assay: Lipid peroxidation in fibroblasts under cumene hydroperoxide stress; type: cell-based; conditions: 200 μM, 24 h, Cumene 50 μM
Method: as §2, §3

## CC(=O)N[C@@H](CS)C(=O)O [NAC, N-Acetyl Cysteine]
Normal human fibroblasts [1]
  ROS (Arbitrary units): 3114 ± 14.2 Arbitrary units
Normal human fibroblasts [1]; Homo sapiens, Fibroblast
  inhibition at 10000 µM: 50%
[2]
  ROS (Arbitrary units): 2490 ± 94.3 Arbitrary units
[2]; Homo sapiens, Keratinocyte
  inhibition at 10000 µM: 100%
Normal human fibroblasts [3]
  GSH (Arbitrary units): 4997.7 ± 947.2 Arbitrary units
  Increase of GSH: 44%

## NC(=O)c1cccnc1 [Nicotinamide, nicotinamide]
[4]
  Inhibition of γH2AX expression: −106%
  γH2AX, Cy5 (Intensity): 3052.8 Intensity

## O=c1c(O)c(-c2ccc(O)c(O)c2)oc2cc(O)cc(O)c12 [Quercetin]
[5]; 10 μM
  ROS (Fluorescence units): 17453.8 ± 2880.6 Fluorescence units
[5]; Homo sapiens, Keratinocyte, 10 μM
  inhibition at 10 µM: 85%

## CC1=C(/C=C/C(C)=C/C=C/C(C)=C/C(=O)O)C(C)(C)CCC1 [Retinoic acid, retinoic acid]
[6]
  Aquaporin-3 (% of positive cells): 0.323 ± 0.004 % of positive cells
  Increase of Aquaporin-3: +45%

## O=C1O[C@H]([C@@H](O)CO)C(O)=C1O [Vitamin C]
[5]; 500 μM
  ROS (Fluorescence units): 7165.2 ± 586.2 Fluorescence units
[5]; Homo sapiens, Keratinocyte, 500 μM
  inhibition at 500 µM: 102%

## C[C@@H]1C[C@H]2[C@@H]3CCC4=CC(=O)C=C[C@]4(C)[C@@]3(F)[C@@H](O)C[C@]2(C)[C@@]1(O)C(=O)CO [dexamethasone]
[7]; 0.1 μM
  IL8: 4194.4 ± 814.1 pg/mL
[7]; Homo sapiens, Keratinocyte, read-out: Inhibition of IL8 production
  inhibition at 0.1 µM: 40%
Reconstructed epidermis; 10 μM
  Interleukine-1 alpha: 334 ± 41 pg/mL
Reconstructed epidermis; Homo sapiens, read-out: Inhibition of IL1α release
  inhibition at 10 µM: 48%

## TGFB1: TGFβ1 at 5 ng/ml, the positive assay reference
[8]
  Collagen I gene expression (Relative quantity): 10.86 ± 4.17
  Dermatopontin gene expression (Relative quantity): 43.17 ± 5.97
  Elastin gene expression (Relative quantity): 67.5 ± 20.55
  MMP1 gene expression (Relative quantity): 0.33 ± 0.13
[8]; vs control cells
  Collagen I gene expression (% of induction): +786%
  Dermatopontin gene expression (% of induction): +5001%
  Elastin gene expression (% of induction): +8148%
  MMP1 gene expression (% of induction): −65%

## vitamin E
[9]
  Inhibition of lipid peroxidation: 93%
  Peroxidized lipids (Arbitrary units): 4485.3 ± 43.3 Arbitrary units
Normal human fibroblasts [10]
  Inhibition of lipid peroxidation: 71%
  Peroxidized lipids (Arbitrary units): 11413.4 ± 69.4 Arbitrary units
